The source of these data is ChEMBL document CHEMBL1201862, “PubChem BioAssay data set” (2004).

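These data come from cells grown in 96-well plates and exposed to compound for 48 hours at five concentrations. GI50: concentration for 50% inhibition of growth.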 The source made the active and inactive calls. No stated cut-off is given here; in the data, active = GI50 up to about 1.1 µM and inactive = higher.

Among the test systems are BT-549; HOP-92; IGROV-1; KM12; LOX IMVI; MDA-MB-231; MOLT-4; NCI-H460; OVCAR-3; OVCAR-5; OVCAR-8; SF-268; SN12C; SW-620; HCC 2998; SK-MEL-5; SNB-19; SNB-75; Hs-578T.
Common to all, as to assay: inhibition of tumour cell growth, NCI panel, 48 h

With `Cn1c(Nc2ccccc2)c(/C=N\c2ccccc2)c(=O)n(C)c1=O`, the GI50 in the assay with BT-549 was > 100 µM (inactive); with HOP-92, 41.7 µM (inactive); with IGROV-1 it was 38.3 µM (inactive); in the assay with KM12 it was 97.7 µM (inactive); with LOX IMVI, 36.4 µM (inactive); in the assay on MDA-MB-231, 61.4 µM (inactive). Moreover, the GI50 in the assay with MOLT-4 is 61.5 µM (inactive); in the assay with NCI-H460, 56.2 µM (inactive); in the assay on OVCAR-3 it was > 100 µM (inactive); in the assay on OVCAR-5, > 100 µM (inactive); in the assay with OVCAR-8, 39.7 µM (inactive); in the assay with SF-268 it was 45.7 µM (inactive). Further, the GI50 is 69.3 µM (inactive) with SN12C and > 100 µM (inactive) in the assay on SW-620.
For `CNCCN[C@@H]1c2cc3c(cc2[C@@H](c2cc(OC)c(O)c(OC)c2)[C@H]2C(=O)OC[C@@H]21)OCO3`, the GI50 in the assay on BT-549 was 0.207 µM (active); with HCC 2998, 0.474 µM (active); with IGROV-1 it was 0.418 µM (active); in the assay with KM12, 0.406 µM (active); with LOX IMVI, 0.153 µM (active); in the assay on MDA-MB-231, 0.37 µM (active). In addition, the GI50 was 0.0104 µM (active) in the assay on MOLT-4; < 0.01 µM (active) with NCI-H460; 0.968 µM (active) in the assay on OVCAR-3; 0.966 µM (active) in the assay with OVCAR-5; 0.252 µM (active) in the assay on OVCAR-8; 0.258 µM (active) in the assay on SF-268. For the same compound, the GI50 in the assay on SK-MEL-5 was 0.148 µM (active); in the assay on SN12C it was 0.0738 µM (active); with SNB-19, 0.291 µM (active); with SNB-75, 0.274 µM (active); in the assay on SW-620, 0.269 µM (active).
Consider `COc1cc(OC)c(NC2=NCCO2)cc1Cl`, for which the GI50 with HCC 2998 was 23.8 µM (inactive); with Hs-578T it was 61.7 µM (inactive); in the assay on IGROV-1 it was 38 µM (inactive); in the assay on KM12, 16.7 µM (inactive); in the assay with LOX IMVI, 31.4 µM (inactive); in the assay on MDA-MB-231, 26.1 µM (inactive). Further, the GI50 was 44.2 µM (inactive) in the assay on MOLT-4; 21.2 µM (inactive) in the assay on NCI-H460; 43.6 µM (inactive) in the assay on OVCAR-3; 53.8 µM (inactive) in the assay with OVCAR-5; 83 µM (inactive) with OVCAR-8; 39.7 µM (inactive) in the assay with SF-268. Moreover, the GI50 with SK-MEL-5 is 23.1 µM (inactive); in the assay with SN12C, 44.4 µM (inactive); in the assay on SNB-19 it was > 100 µM (inactive); in the assay with SNB-75, 35.6 µM (inactive); in the assay on SW-620, > 100 µM (inactive).
With `CC1=CCC2CC1NC(=O)CCOCCC(=O)NC2(C)C` (centres undefined), the GI50 with HCC 2998, in the assay on HOP-92, in the assay with KM12, in the assay on LOX IMVI, in the assay on MDA-MB-231 and in the assay with MOLT-4 was > 100 µM (inactive) each time. Also, the GI50 in the assay on NCI-H460, in the assay with OVCAR-5, with OVCAR-8, with SF-268, in the assay on SK-MEL-5 and in the assay on SN12C was > 100 µM (inactive) each time. Besides, the GI50 with SNB-19 and with SW-620 was > 100 µM (inactive) throughout.
With `CC(=O)OCc1cc(=O)n(C)c2c3c4c(cc12)c(C)cc(=O)n4CO3`, the GI50 in the assay on HCC 2998 was 1.52 µM (inactive); in the assay on HOP-92, 1.95 µM (inactive); in the assay with IGROV-1, 1.21 µM (inactive); with KM12, 1.23 µM (inactive); with LOX IMVI, 1.26 µM (inactive); in the assay on MOLT-4, 0.478 µM (active). Besides, the GI50 in the assay on NCI-H460 was 0.52 µM (active); in the assay with OVCAR-3, 1.45 µM (inactive); with OVCAR-5 it was 2.73 µM (inactive); in the assay with OVCAR-8 it was 0.555 µM (active); in the assay on SF-268 it was 0.782 µM (active); with SK-MEL-5 it was 1.66 µM (inactive). Further, the GI50 is 1.66 µM (inactive) in the assay with SN12C, 1.61 µM (inactive) in the assay with SNB-19, 1.91 µM (inactive) with SNB-75 and 0.489 µM (active) in the assay with SW-620.
`Cc1ccc([N+](=O)[O-])cc1NC(=O)C(=O)Cc1occc(=O)c1O`: the GI50 in the assay on HCC 2998, with HOP-92, in the assay with IGROV-1, with KM12, in the assay with LOX IMVI and in the assay with NCI-H460 was > 100 µM (inactive) throughout. Besides, the GI50 in the assay on OVCAR-3, in the assay on OVCAR-5, in the assay on OVCAR-8, in the assay on SF-268, in the assay with SK-MEL-5 and in the assay with SN12C was > 100 µM (inactive) throughout. The GI50 with SNB-19, in the assay on SNB-75 and with SW-620 was > 100 µM (inactive) in each case.
In the case of `COc1ccc2c(c1)OCc1c-2oc2ccccc2c1=O`, the GI50 with BT-549 was > 100 µM (inactive); in the assay on HCC 2998, > 100 µM (inactive); with HOP-92, > 100 µM (inactive); in the assay on IGROV-1, 75.2 µM (inactive); in the assay with KM12, > 100 µM (inactive); in the assay with LOX IMVI, > 100 µM (inactive). Further, the GI50 in the assay on MDA-MB-231 was 30.1 µM (inactive); in the assay on MOLT-4, > 100 µM (inactive); in the assay on OVCAR-3 it was > 100 µM (inactive); in the assay with OVCAR-5, > 100 µM (inactive); with OVCAR-8, > 100 µM (inactive); with SF-268 it was 69.3 µM (inactive). Further, the figures for the GI50 in the assay with SK-MEL-5, in the assay with SN12C and with SNB-75 were 41.1 µM (inactive), > 100 µM (inactive) and 34.5 µM (inactive), respectively.
Regarding `O=C1C(=O)C(CCCO)(CCCO)CCCCCCCCC1(CCCO)CCCO`, the GI50 in the assay on HCC 2998 is > 100 µM (inactive); in the assay on HOP-92, 39.7 µM (inactive); with Hs-578T, 57.7 µM (inactive); in the assay with IGROV-1, 41.3 µM (inactive); in the assay with KM12, 78.5 µM (inactive); with LOX IMVI it was 64.7 µM (inactive). In addition, the GI50 with NCI-H460 was > 100 µM (inactive); in the assay with OVCAR-3, 32.2 µM (inactive); in the assay with OVCAR-5 it was > 100 µM (inactive); with OVCAR-8 it was > 100 µM (inactive); with SF-268, 38.1 µM (inactive); with SK-MEL-5, 41.1 µM (inactive). Moreover, the GI50 in the assay with SN12C is > 100 µM (inactive); with SNB-19 it was 61.5 µM (inactive); in the assay with SNB-75 it was 50.1 µM (inactive); in the assay with SW-620 it was > 100 µM (inactive).
Take `CCCCCCCCCCCCCCCCNc1ccn(C2CC(OP(=O)(O)OCC3OC(n4cc(CC)c(=O)[nH]c4=O)CC3O)C(CO)O2)c(=O)n1` (centres undefined): the GI50 is 24.5 µM (inactive) in the assay with HCC 2998; 48.4 µM (inactive) with HOP-92; 22.1 µM (inactive) with Hs-578T; 41.5 µM (inactive) in the assay with IGROV-1; 15.7 µM (inactive) in the assay with KM12; 44.7 µM (inactive) in the assay with LOX IMVI. Besides, the GI50 with MDA-MB-231 is 35.2 µM (inactive); in the assay with MOLT-4 it was 20.3 µM (inactive); in the assay on OVCAR-3, 38.3 µM (inactive); with OVCAR-5, 23.9 µM (inactive); in the assay on OVCAR-8 it was 20 µM (inactive); in the assay on SF-268, 15.3 µM (inactive). Moreover, the GI50 with SK-MEL-5 is 2.29 µM (inactive); with SN12C it was 41.5 µM (inactive); with SNB-19 it was 16 µM (inactive); in the assay with SNB-75, 23.3 µM (inactive); in the assay on SW-620, 23.8 µM (inactive).
In the case of `Nc1ccccc1C#CC(=O)c1cccc(C(F)(F)F)c1`, the GI50 in the assay with HOP-92 was 1.99 µM (inactive); in the assay on Hs-578T it was 2.56 µM (inactive); in the assay with IGROV-1, 0.258 µM (active); in the assay on KM12, 13.9 µM (inactive); in the assay with LOX IMVI, 1.46 µM (inactive); in the assay with MDA-MB-231, 1.95 µM (inactive). The GI50 in the assay on MOLT-4 is 2.55 µM (inactive); in the assay on NCI-H460, 19.3 µM (inactive); in the assay with OVCAR-3 it was 3.78 µM (inactive); in the assay with OVCAR-5, 6.59 µM (inactive); in the assay on SF-268 it was 2.2 µM (inactive); in the assay on SK-MEL-5, 2.35 µM (inactive). In addition, the GI50 with SN12C is 2.06 µM (inactive); in the assay on SNB-19, 14.5 µM (inactive); with SNB-75, 14.1 µM (inactive); in the assay with SW-620, 2.21 µM (inactive).
As to `Clc1ccc(C[P+](c2ccccc2)(c2ccccc2)c2ccccc2)cc1Cl`, the GI50 was 2.46 µM (inactive) with HCC 2998; 1.62 µM (inactive) in the assay on HOP-92; 2.51 µM (inactive) in the assay on IGROV-1; 2.69 µM (inactive) in the assay with KM12; 1.55 µM (inactive) in the assay with LOX IMVI; 2.34 µM (inactive) in the assay with NCI-H460. The GI50 was 2.06 µM (inactive) in the assay on OVCAR-3; 5.27 µM (inactive) in the assay with OVCAR-5; 3.05 µM (inactive) in the assay on OVCAR-8; 3.22 µM (inactive) in the assay on SF-268; 1.42 µM (inactive) with SK-MEL-5; 4.04 µM (inactive) in the assay with SN12C. Moreover, the results for the GI50 in the assay on SNB-19, with SNB-75 and with SW-620 were 3.21 µM (inactive), 1.77 µM (inactive) and 2.93 µM (inactive), respectively.
On to `NCCCNCCSP(=O)(O)O` [AMIFOSTINE], for which the GI50 in the assay on HCC 2998 is > 733 µM (inactive); in the assay with HOP-92 it was > 750 µM (inactive); in the assay with IGROV-1, > 750 µM (inactive); in the assay on KM12, 543 µM (inactive); with LOX IMVI it was 270 µM (inactive); in the assay on MOLT-4 it was 685 µM (inactive). Also, the GI50 is > 750 µM (inactive) in the assay with NCI-H460; > 750 µM (inactive) with OVCAR-3; > 750 µM (inactive) in the assay with OVCAR-5; > 511 µM (inactive) in the assay with OVCAR-8; > 750 µM (inactive) with SF-268; > 750 µM (inactive) in the assay with SK-MEL-5. Besides, the GI50 in the assay with SN12C, in the assay on SNB-19, in the assay with SNB-75 and in the assay with SW-620 was > 750 µM (inactive) in each case.
On to `Cn1c(/C=C/CO)c(CO)c2c1C(=O)C=C(N1CC1)C2=O` [APAZIQUONE], for which the GI50 with HCC 2998 was < 0.01 µM (active); in the assay with HOP-92 it was 0.222 µM (active); in the assay with IGROV-1, 0.0244 µM (active); with KM12 it was < 0.01 µM (active); with LOX IMVI, < 0.01 µM (active); in the assay with MOLT-4 it was 0.299 µM (active). The GI50 with NCI-H460 is < 0.01 µM (active); with OVCAR-3 it was 0.0206 µM (active); in the assay with OVCAR-5, < 0.0122 µM (active); in the assay on OVCAR-8, < 0.0156 µM (active); in the assay on SF-268 it was 0.0137 µM (active); with SK-MEL-5, < 0.01 µM (active). The GI50 in the assay with SN12C, with SNB-19, with SNB-75 and in the assay with SW-620 was < 0.01 µM (active) in each case.
